Assay results as given in the NIST ThermoML archive (doi:10.1016/j.fluid.2014.11.020).
Numbers after ± are expanded uncertainties.

Assay: activity coefficient (dimensionless); of the first substance listed, at infinite dilution; xn = mol fraction of the nth substance listed
Details: Liquid, Chromatography, x1 = 0

Row | Compound | activity coefficient (323.15 K) | activity coefficient (333.15 K) | activity coefficient (343.15 K)
1 | c1ccsc1 [thiophene] + CN(C)c1cc[n+](COCCCOC[n+]2ccc(N(C)C)cc2)cc1.O=S(=O)([N-]S(=O)(=O)C(F)(F)F)C(F)(F)F.O=S(=O)([N-]S(=O)(=O)C(F)(F)F)C(F)(F)F | 0.55 ± 0.04 | 0.56 ± 0.04 | 0.57 ± 0.04
2 | c1ccsc1 [thiophene] + Cn1cc[n+](COCCCOC[n+]2ccn(C)c2)c1.N#C[N-]C#N.N#C[N-]C#N | 1.58 ± 0.1 | 1.63 ± 0.11 | 1.68 ± 0.11
3 | c1ccsc1 [thiophene] + Cn1cc[n+](COCCCOC[n+]2ccn(C)c2)c1.O=S(=O)([N-]S(=O)(=O)C(F)(F)F)C(F)(F)F.O=S(=O)([N-]S(=O)(=O)C(F)(F)F)C(F)(F)F | 0.77 ± 0.05 | 0.78 ± 0.05 | 0.78 ± 0.05
4 | c1ccsc1 [thiophene] + N#C[N-]C#N.N#C[N-]C#N.c1ccc(Cn2cc[n+](COCCCOC[n+]3ccn(Cc4ccccc4)c3)c2)cc1 | 1.7 ± 0.11 | 1.64 ± 0.11 | 1.67 ± 0.11
5 | Cc1ccccc1 [toluene] + CCCCCCCCn1cc[n+](COCCC)c1C.N#C[N-]C#N | 1.43 ± 0.09 | 1.22 ± 0.08 | 1.15 ± 0.07
6 | Cc1ccccc1 [toluene] + CCCCCCCCn1cc[n+](COCCC)c1C.O=S(=O)([N-]S(=O)(=O)C(F)(F)F)C(F)(F)F | 0.76 ± 0.05 | 0.76 ± 0.05 | 0.77 ± 0.05
7 | Cc1ccccc1 [toluene] + CCCCCCCCn1cc[n+](COCCCOC[n+]2ccn(CCCCCCCC)c2C)c1C.N#C[N-]C#N.N#C[N-]C#N | 0.94 ± 0.06 | 0.95 ± 0.06 | 0.97 ± 0.06
8 | Cc1ccccc1 [toluene] + CCCCCCCCn1cc[n+](COCCCOC[n+]2ccn(CCCCCCCC)c2C)c1C.O=S(=O)([N-]S(=O)(=O)C(F)(F)F)C(F)(F)F.O=S(=O)([N-]S(=O)(=O)C(F)(F)F)C(F)(F)F | 0.54 ± 0.04 | 0.53 ± 0.04 | 0.54 ± 0.04
9 | Cc1ccccc1 [toluene] + CCCOC[n+]1ccc(N(C)C)cc1.O=S(=O)([N-]S(=O)(=O)C(F)(F)F)C(F)(F)F | 0.99 ± 0.06 | 1.04 ± 0.07 | 1.05 ± 0.07
10 | Cc1ccccc1 [toluene] + CCCOC[n+]1ccn(C)c1.F[B-](F)(F)F | 6.06 ± 0.41 | 6.02 ± 0.41 | 5.98 ± 0.41
11 | Cc1ccccc1 [toluene] + CCCOC[n+]1ccn(C)c1.N#C[N-]C#N | 3.6 ± 0.25 | 3.65 ± 0.25 | 3.77 ± 0.26
12 | Cc1ccccc1 [toluene] + CCCOC[n+]1ccn(C)c1.O=S(=O)([N-]S(=O)(=O)C(F)(F)F)C(F)(F)F | 1.7 ± 0.11 | 1.68 ± 0.11 | 1.69 ± 0.11
13 | Cc1ccccc1 [toluene] + CCCOC[n+]1ccn(Cc2ccccc2)c1.F[B-](F)(F)F | 3.12 ± 0.21 | 3.03 ± 0.21 | 3.04 ± 0.21
14 | Cc1ccccc1 [toluene] + CCCOC[n+]1ccn(Cc2ccccc2)c1.N#C[N-]C#N | 2.29 ± 0.16 | 2.26 ± 0.15 | 2.25 ± 0.15
15 | Cc1ccccc1 [toluene] + CCCOC[n+]1ccn(Cc2ccccc2)c1.O=S(=O)([N-]S(=O)(=O)C(F)(F)F)C(F)(F)F | 1.09 ± 0.07 | 0.97 ± 0.06 | 0.96 ± 0.06
16 | Cc1ccccc1 [toluene] + CN(C)c1cc[n+](COCCCOC[n+]2ccc(N(C)C)cc2)cc1.O=S(=O)([N-]S(=O)(=O)C(F)(F)F)C(F)(F)F.O=S(=O)([N-]S(=O)(=O)C(F)(F)F)C(F)(F)F | 0.92 ± 0.06 | 0.94 ± 0.06 | 0.96 ± 0.06

Row | Compound | activity coefficient (323.15 K) | activity coefficient (333.15 K) | activity coefficient (343.15 K)
17 | Cc1ccccc1 [toluene] + Cn1cc[n+](COCCCOC[n+]2ccn(C)c2)c1.N#C[N-]C#N.N#C[N-]C#N | 5.63 ± 0.38 | 5.58 ± 0.38 | 5.49 ± 0.37
18 | Cc1ccccc1 [toluene] + Cn1cc[n+](COCCCOC[n+]2ccn(C)c2)c1.O=S(=O)([N-]S(=O)(=O)C(F)(F)F)C(F)(F)F.O=S(=O)([N-]S(=O)(=O)C(F)(F)F)C(F)(F)F | 1.46 ± 0.1 | 1.48 ± 0.1 | 1.46 ± 0.1
19 | Cc1ccccc1 [toluene] + N#C[N-]C#N.N#C[N-]C#N.c1ccc(Cn2cc[n+](COCCCOC[n+]3ccn(Cc4ccccc4)c3)c2)cc1 | 5.08 ± 0.35 | 4.97 ± 0.34 | 4.8 ± 0.33
20 | ClC(Cl)Cl [trichloromethane] + CCCCCCCCn1cc[n+](COCCC)c1C.N#C[N-]C#N | 0.27 ± 0.03 | 0.3 ± 0.03 | 0.33 ± 0.03
21 | ClC(Cl)Cl [trichloromethane] + CCCCCCCCn1cc[n+](COCCC)c1C.O=S(=O)([N-]S(=O)(=O)C(F)(F)F)C(F)(F)F | 0.51 ± 0.04 | 0.49 ± 0.04 | 0.53 ± 0.04
22 | ClC(Cl)Cl [trichloromethane] + CCCCCCCCn1cc[n+](COCCCOC[n+]2ccn(CCCCCCCC)c2C)c1C.N#C[N-]C#N.N#C[N-]C#N | 0.24 ± 0.03 | 0.26 ± 0.03 | 0.27 ± 0.03
23 | ClC(Cl)Cl [trichloromethane] + CCCCCCCCn1cc[n+](COCCCOC[n+]2ccn(CCCCCCCC)c2C)c1C.O=S(=O)([N-]S(=O)(=O)C(F)(F)F)C(F)(F)F.O=S(=O)([N-]S(=O)(=O)C(F)(F)F)C(F)(F)F | 0.39 ± 0.03 | 0.38 ± 0.03 | 0.39 ± 0.03
24 | ClC(Cl)Cl [trichloromethane] + CCCOC[n+]1ccc(N(C)C)cc1.O=S(=O)([N-]S(=O)(=O)C(F)(F)F)C(F)(F)F | 0.71 ± 0.05 | 0.75 ± 0.05 | 0.79 ± 0.05
25 | ClC(Cl)Cl [trichloromethane] + CCCOC[n+]1ccn(C)c1.F[B-](F)(F)F | 1.74 ± 0.12 | 1.8 ± 0.12 | 1.87 ± 0.13
26 | ClC(Cl)Cl [trichloromethane] + CCCOC[n+]1ccn(C)c1.N#C[N-]C#N | 0.8 ± 0.05 | 0.85 ± 0.05 | 0.92 ± 0.06
27 | ClC(Cl)Cl [trichloromethane] + CCCOC[n+]1ccn(C)c1.O=S(=O)([N-]S(=O)(=O)C(F)(F)F)C(F)(F)F | 1.03 ± 0.06 | 1.06 ± 0.07 | 1.06 ± 0.07
28 | ClC(Cl)Cl [trichloromethane] + CCCOC[n+]1ccn(Cc2ccccc2)c1.F[B-](F)(F)F | 1.16 ± 0.07 | 1.15 ± 0.07 | 1.2 ± 0.08
29 | ClC(Cl)Cl [trichloromethane] + CCCOC[n+]1ccn(Cc2ccccc2)c1.N#C[N-]C#N | 0.62 ± 0.04 | 0.65 ± 0.04 | 0.69 ± 0.05
30 | ClC(Cl)Cl [trichloromethane] + CCCOC[n+]1ccn(Cc2ccccc2)c1.O=S(=O)([N-]S(=O)(=O)C(F)(F)F)C(F)(F)F | 0.73 ± 0.05 | 0.65 ± 0.04 | 0.66 ± 0.05
31 | ClC(Cl)Cl [trichloromethane] + CN(C)c1cc[n+](COCCCOC[n+]2ccc(N(C)C)cc2)cc1.O=S(=O)([N-]S(=O)(=O)C(F)(F)F)C(F)(F)F.O=S(=O)([N-]S(=O)(=O)C(F)(F)F)C(F)(F)F | 0.67 ± 0.05 | 0.69 ± 0.05 | 0.7 ± 0.05
